Experimental data published in patent publication US10660856B2, “Porous silica gel as a carrier for liquid technologies” (W.R. Grace & Co.-Conn., priority 2013, dated 2020).

Legend:
Assay type in all cases: physicochemical
[1] = Oil release (Tocopherol) from tablets, dissolution with HPLC; settings: at 45 min, from tablets of Tocopherol loaded silica S2, 100 mg Tocopherol per tablet
Method: Oil Release (Tocopherol) from Tablets: The carrier materials used in the following trials was the material designated S2 in Example 1. Tocopherol was the liquid lipid that was loaded on to the silica. Silica S2 was loaded with liquid lipid pursuant to method of Example 8 and was used as the oil loaded carrier component in tablet. Tablets were prepared pursuant to the method in example 10. Tochopherol concentration in the tablet was 100 mg.
Tablets prepared were subjected to dissolution studies pursuant to the method described in Example 8. An aliquot of 2 mL was withdrawn at predetermined time interval and filtered through 0.22μ membrane filter. The dissolution samples were analyzed by using HPLC (Waters UPLC Wavelength: 294 nm Column: Rocket Format, 53×7 mm, 3μ) Mobile Phase: 85% ACN: 10% MeOH: 5% H2O.)

[2] = Specific gravity of oils and surfactants
[3] = Oil or surfactant adsorption capacity on Sample S1 (ASTM D281 titration)
Method: Procedure: 2 to 5 g (based on bulk density) of the solid carrier material was placed in a 100 ml beaker and the oil or surfactant was added drop wise from a Burette, while mixing with spatula according to ASTM […]. The addition of oil or surfactant was continued until a thick paste-like mass formation. The addition of oil or surfactant was stopped when the mass appeared to contain excess oil. The Burette reading was recorded when the mass contained no excess oil or surfactant. The adsorption capacity was calculated using the below equation: [formula]

[4] = oil adsorbed on Sample S1 material

Tocopherol release [1] | Specific gravity ([2]; oils, Table 2) [g/mL] | Adsorption capacity [3, 4] [g/100 g] | Specific gravity ([2]; surfactants, Table 3) [g/mL] | Adsorption capacity ([3]; surfactant adsorbed on Sample S1 material) [g/100 g] | SMILES
≈ 100% | 0.950 | 292 |  |  | Cc1c(C)c2c(c(C)c1O)CCC(C)(CCCC(C)CCCC(C)CCCC(C)C)O2 (racemic) [dl-α-Tocopherol]
 | 0.895 | 300 |  |  | CCCCCCCC/C=C\CCCCCCCC(=O)O [Oleic acid]
 |  |  | 0.987 | 295 | CCOCCOCCO [Transcutol HP]
